{"source": "patent US20230279016A1", "about": "“Tetrahydropyrazolopyrimidines and Related Analogs for Inhibiting YAP/TAZ-TEAD” (THE KATHOLIEKE UNIVERSITEIT LEUVEN, priority 2021, published 2023)", "data": [{"tested_on": "YAP/TAZ-TEAD transcription", "assay": "Reporter gene assay for measuring the inhibition of YAP/TAZ-TEAD transcription (TEAD-responsive element luciferase reporter in Hek293T cells)", "type": "cell-based", "settings": "Hek293T cells transiently transfected with TEAD-responsive element luciferase reporter, 24 hours incubation", "method": "(§1) Hek293T cells are cultured in DMEM supplemented with 10% fetal bovine serum, Sodium pyruvate, Sodium bicarbonate, L-glutamine. The cells are harvested and transiently transfected with TEAD-responsive element luciferase reporter. Transfected cells are plated in 384-wells plate containing pre-diluted compounds. After 24 hours incubation at 37° C./5%CO2, assay plates were cooled down to RT and levelled to an equal volume per well, prior to the addition of 25 uL luciferase substrate SteadyLite (Perkin Elmer)/well. The plate was shaken for 10 min at 600 rpm, centrifuged for 1min at 500 rpm and measured with an Envision reader (PerkinElmer). The amount of relative light units produced by the TEAD reporter is used to calculated percent of inhibition.\n(§2) The percent of reporter inhibition was calculated in the presence of a positive control inhibitor (100% inhibition) versus a condition with the presence of the vehicle basal activity of the reporter (0% inhibition). The ability of a test compound to inhibit this activity was determined as:\n(§3) Percentage inhibition=[1-((RLU determined in the presence of vehicle—RLU determined for sample with test compound present) divided by (RLU determined in the presence of vehicle — RLU determined for sample with positive control inhibitor))] * 100\n(§4) The activities of the example compounds tested are depicted in the table below. The activity ranges A, B and C refer to EC50 values in the reporter gene assay as described as follows: “A”: EC50 <1 μM; “B” : 1 μM≤EC50≤20 μM and “C” : EC50>20 μM, NT=not tested.", "units": {"EC50": "nM"}, "values": [{"smiles": "C=CC(=O)NCC1CN(c2ccc(C(F)(F)F)cc2)c2cnc(C(F)(F)F)n2C1", "note": "(single isomer, unassigned) [Cpd. No. 094-En2, (R)- or (S)-N-((6-(trifluoromethyl)-1-(4-(trifluoromethyl)phenyl)-1,2,3,4-tetrahydroimidazo[1,5-a]pyrimidin-3-yl)methyl)acrylamide]", "EC50": "< 1000"}, {"smiles": "C=CC(=O)NCC1CN(c2ccc(C(F)F)nc2)c2ccnn2C1", "note": "(stereo not shown) [Cpd. No. 010, N-((4-(6-(difluoromethyl)pyridin-3-yl)-4,5,6,7-tetrahydropyrazolo[1,5-a]pyrimidin-6-yl)methyl)acrylamide]", "EC50": "< 1000"}, {"smiles": "C=CC(=O)NCC1CN(c2ccc(-c3ccccc3)cc2)c2ccnn2C1", "note": "(stereo not shown) [Cpd. No. 017, N-((4-([1,1′-biphenyl]-4-yl)-4,5,6,7-tetrahydropyrazolo[1,5-a]pyrimidin-6-yl)methyl)acrylamide]", "EC50": "1000 to 20000"}, {"smiles": "CCC(=O)NCC1CN(c2ccc(C(F)(F)F)cc2)c2ccnn2C1", "note": "(stereo not shown) [Cpd. No. 028, N-((4-(4-(trifluoromethyl)phenyl)-4,5,6,7-tetrahydropyrazolo[1,5-a]pyrimidin-6-yl)methyl)propionamide]", "EC50": "< 1000"}, {"smiles": "C=CC(=O)NCC1CN(S(=O)(=O)c2ccc(C(F)(F)F)cc2)c2ccnn2C1", "note": "(stereo not shown) [Cpd. No. 045, N-((4-((4-(trifluoromethyl)phenyl)sulfonyl)-4,5,6,7-tetrahydropyrazolo[1,5-a]pyrimidin-6-yl)methyl)acrylamide]", "EC50": "> 20000"}, {"smiles": "C=CC(=O)NCC1CN(S(=O)(=O)c2ccc(C(F)(F)F)cc2)c2ccnn2C1", "note": "(stereo not shown) [Cpd. No. 045-En1, N-((4-((4-(trifluoromethyl)phenyl)sulfonyl)-4,5,6,7-tetrahydropyrazolo[1,5-a]pyrimidin-6-yl)methyl)acrylamide]", "EC50": "1000 to 20000"}, {"smiles": "C=CC(=O)NCC1CN(S(=O)(=O)c2ccc(C(F)(F)F)cc2)c2ccnn2C1", "note": "(stereo not shown) [Cpd. No. 045-En2, N-((4-((4-(trifluoromethyl)phenyl)sulfonyl)-4,5,6,7-tetrahydropyrazolo[1,5-a]pyrimidin-6-yl)methyl)acrylamide]", "EC50": "> 20000"}]}, {"tested_on": "YAP/TAZ-TEAD transcription", "assay": "Reporter gene assay for measuring the inhibition of YAP/TAZ-TEAD transcription (TEAD-responsive element luciferase reporter in Hek293T cells)", "type": "cell-based", "settings": "Homo sapiens, HEK-293T, 24 h, Hek293T cells transiently transfected with TEAD-responsive element luciferase reporter, 24 hours incubation", "method": "as §1, §2, §3, §4", "units": {"EC50": "nM"}, "values": [{"smiles": "C=CC(=O)NCC1CN(c2cccc(C(F)(F)F)c2)c2ccnn2C1", "note": "(stereo not shown) [Cpd. No. 003, N-((4-(3-(trifluoromethyl)phenyl)-4,5,6,7-tetrahydropyrazolo[1,5-a]pyrimidin-6-yl)methyl)acrylamide]", "EC50": "< 1000"}, {"smiles": "C=CC(=O)NCC1CN(c2cccc(F)c2)c2ccnn2C1", "note": "(stereo not shown) [Cpd. No. 004, N-((4-(3-fluorophenyl)-4,5,6,7-tetrahydropyrazolo[1,5-a]pyrimidin-6-yl)methyl)acrylamide]", "EC50": "< 1000"}, {"smiles": "C=CC(=O)NCC1CN(c2ccc(F)cc2)c2ccnn2C1", "note": "(stereo not shown) [Cpd. No. 006, N-((4-(4-fluorophenyl)-4,5,6,7-tetrahydropyrazolo[1,5-a]pyrimidin-6-yl)methyl)acrylamide]", "EC50": "< 1000"}, {"smiles": "C=CC(=O)NCC1CN(c2ccc(C(F)F)cc2)c2ccnn2C1", "note": "(stereo not shown) [Cpd. No. 009, N-((4-(4-(difluoromethyl)phenyl)-4,5,6,7-tetrahydropyrazolo[1,5-a]pyrimidin-6-yl)methyl)acrylamide]", "EC50": "< 1000"}, {"smiles": "C=CC(=O)NCC1CN(c2ccc(OC(F)(F)F)c(F)c2)c2ccnn2C1", "note": "(stereo not shown) [Cpd. No. 018, N-((4-(3-fluoro-4-(trifluoromethoxy)phenyl)-4,5,6,7-tetrahydropyrazolo[1,5-a]pyrimidin-6-yl)methyl)acrylamide]", "EC50": "< 1000"}, {"smiles": "C=CC(=O)NCC1CN(c2ccc(SC(F)(F)F)cc2)c2ccnn2C1", "note": "(stereo not shown) [Cpd. No. 020, N-((4-(4-((trifluoromethyl)thio)phenyl)-4,5,6,7-tetrahydropyrazolo[1,5-a]pyrimidin-6-yl)methyl)acrylamide]", "EC50": "< 1000"}, {"smiles": "C=CC(=O)NCC1CN(c2cnn(C(F)F)c2)c2ccnn2C1", "note": "(stereo not shown) [Cpd. No. 025, N-((4-(1-(difluoromethyl)-1H-pyrazol-4-yl)-4,5,6,7-tetrahydropyrazolo[1,5-a]pyrimidin-6-yl)methyl)acrylamide]", "EC50": "> 20000"}, {"smiles": "C=CC(=O)NCC1CN(c2ccc(OC(F)(F)F)cc2)c2cc(C)nn2C1", "note": "(stereo not shown) [Cpd. No. 030, N-((2-methyl-4-(4-(trifluoromethoxy)phenyl)-4,5,6,7-tetrahydropyrazolo[1,5-a]pyrimidin-6-yl)methyl)acrylamide]", "EC50": "< 1000"}, {"smiles": "C=CC(=O)NCC1CN(c2ccc(C(F)(F)F)cc2)c2cc(C#N)nn2C1", "note": "(stereo not shown) [Cpd. No. 033, N-((2-cyano-4-(4-(trifluoromethyl)phenyl)-4,5,6,7-tetrahydropyrazolo[1,5-a]pyrimidin-6-yl)methyl)acrylamide]", "EC50": "< 1000"}, {"smiles": "C#Cc1ccc(N2CC(CNC(=O)C=C)Cn3nccc32)cc1", "note": "(stereo not shown) [Cpd. No. 036, N-((4-(4-ethynylphenyl)-4,5,6,7-tetrahydropyrazolo[1,5-a]pyrimidin-6-yl)methyl)acrylamide]", "EC50": "< 1000"}, {"smiles": "C=CC(=O)NCC1CN(C2CCCCC2)c2ccnn2C1", "note": "(stereo not shown) [Cpd. No. 037, N-((4-cyclohexyl-4,5,6,7-tetrahydropyrazolo[1,5-a]pyrimidin-6-yl)methyl)acrylamide]", "EC50": "< 1000"}, {"smiles": "CN(C)C/C=C/C(=O)NCC1CN(c2ccc(C(F)(F)F)cc2)c2ccnn2C1", "note": "(stereo not shown) [Cpd. No. 041, (E)-4-(dimethylamino)-N-((4-(4-(trifluoromethyl)phenyl)-4,5,6,7-tetrahydropyrazolo[1,5-a]pyrimidin-6-yl)methyl)but-2-enamide]", "EC50": "1000 to 20000"}, {"smiles": "N#CCC(=O)NCC1CN(c2ccc(C(F)(F)F)cc2)c2ccnn2C1", "note": "(stereo not shown) [Cpd. No. 042, 2-cyano-N-((4-(4-(trifluoromethyl)phenyl)-4,5,6,7-tetrahydropyrazolo[1,5-a]pyrimidin-6-yl)methyl)acetamide]", "EC50": "> 20000"}, {"smiles": "CC(=O)N(CC#N)CC1CN(c2ccc(C(F)(F)F)cc2)c2ccnn2C1", "note": "(stereo not shown) [Cpd. No. 043, N-(cyanomethyl)-N-((4-(4-(trifluoromethyl)phenyl)-4,5,6,7-tetrahydropyrazolo[1,5-a]pyrimidin-6-yl)methyl)acetamide]", "EC50": "> 20000"}, {"smiles": "C#CCNCC1CN(c2ccc(C(F)(F)F)cc2)c2ccnn2C1", "note": "(stereo not shown) [Cpd. No. 044, N-((4-(4-(trifluoromethyl)phenyl)-4,5,6,7-tetrahydropyrazolo[1,5-a]pyrimidin-6-yl)methyl)prop-2-yn-1-amine]", "EC50": "> 20000"}, {"smiles": "C=CC(=O)NCC1CN(C(=O)C2CCCCC2)c2ccnn2C1", "note": "(stereo not shown) [Cpd. No. 046, N-((4-(cyclohexanecarbonyl)-4,5,6,7-tetrahydropyrazolo[1,5-a]pyrimidin-6-yl)methyl)acrylamide]", "EC50": "1000 to 20000"}, {"smiles": "C=CC(=O)NCC1CN(C(=O)c2ccccc2)c2ccnn2C1", "note": "(stereo not shown) [Cpd. No. 047, N-((4-benzoyl-4,5,6,7-tetrahydropyrazolo[1,5-a]pyrimidin-6-yl)methyl)acrylamide]", "EC50": "> 20000"}, {"smiles": "CCC(=O)NCC1CN(Cc2ccc(C(F)(F)F)cc2)c2ccnn2C1", "note": "(stereo not shown) [Cpd. No. 050, N-((4-(4-(trifluoro-methyl)benzyl)-4,5,6,7-tetrahydropyrazolo[1,5-a]pyrimidin-6-yl)-methyl)propionamide]", "EC50": "> 20000"}, {"smiles": "CS(=O)(=O)NCC1CN(Cc2ccc(C(F)(F)F)cc2)c2ccnn2C1", "note": "(stereo not shown) [Cpd. No. 051, N-((4-(4-(trifluoro-methyl)benzyl)-4,5,6,7-tetrahydropyrazolo[1,5-a]pyrimidin-6-yl)-methyl)methanesulfonamide]", "EC50": "> 20000"}, {"smiles": "CCC(=O)NCC1CN(Cc2cccc(C(F)(F)F)c2)c2ccnn2C1", "note": "(stereo not shown) [Cpd. No. 053, N-((4-(3-(trifluoro-methyl)benzyl)-4,5,6,7-tetrahydropyrazolo[1,5-a]pyrimidin-6-yl)-methyl)propionamide]", "EC50": "> 20000"}, {"smiles": "CS(=O)(=O)NCC1CN(Cc2cccc(C(F)(F)F)c2)c2ccnn2C1", "note": "(stereo not shown) [Cpd. No. 054, N-((4-(3-(trifluoro-methyl)benzyl)-4,5,6,7-tetrahydropyrazolo[1,5-a]pyrimidin-6-yl)-methyl)methanesulfonamide]", "EC50": "> 20000"}, {"smiles": "C=CC(=O)NCC1CN(CC2CCCCC2)c2ccnn2C1", "note": "(stereo not shown) [Cpd. No. 055, N-((4-(cyclohexylmethyl)-4,5,6,7-tetrahydropyrazolo[1,5-a]pyrimidin-6-yl)-methyl)acrylamide]", "EC50": "< 1000"}, {"smiles": "C=CC(=O)NCC1CN(CC#Cc2ccccc2)c2ccnn2C1", "note": "(stereo not shown) [Cpd. No. 056, N-((4-(3-phenylprop-2-yn-1-yl)-4,5,6,7-tetrahydropyrazolo[1,5-a]pyrimidin-6-yl)-methyl)acrylamide]", "EC50": "< 1000"}, {"smiles": "C#CCN1CC(CNC(=O)C=C)Cn2nccc21", "note": "(stereo not shown) [Cpd. No. 057, N-((4-(prop-2-yn-1-yl)-4,5,6,7-tetrahydropyrazolo[1,5-a]pyrimidin-6-yl)-methyl)acrylamide]", "EC50": "> 20000"}, {"smiles": "CCC(=O)NC1CN(c2ccc(C(F)(F)F)cc2)c2ccnn2C1", "note": "(stereo not shown) [Cpd. No. 062, N-(4-(4-(trifluoromethyl)phenyl)-4,5,6,7-tetrahydropyrazolo[1,5-a]pyrimidin-6-yl)propionamide]", "EC50": "> 20000"}, {"smiles": "C=CC(=O)NC1CN(c2ccc(C(F)(F)F)c(F)c2)c2ccnn2C1", "note": "(stereo not shown) [Cpd. No. 064, N-(4-(3-fluoro-4-(trifluoromethyl)phenyl)-4,5,6,7-tetrahydropyrazolo[1,5-a]pyrimidin-6-yl)acrylamide]", "EC50": "< 1000"}, {"smiles": "C=CC(=O)NC1CN(c2ccc(Cl)cc2)c2ccnn2C1", "note": "(stereo not shown) [Cpd. No. 066, N-(4-(4-chlorophenyl)-4,5,6,7-tetrahydropyrazolo[1,5-a]pyrimidin-6-yl)acrylamide]", "EC50": "< 1000"}]}]}
